Measured values: patent publication US12083093B2, “Composition for preventing or treating cellular senescence-related diseases comprising salinomycin as effective component” (RESEARCH COOPERATION FOUNDATION OF YEUNGNAM UNIVERSITY, priority 2018, dated 2024)

Tested on: peritoneal fibrosis induced by chlorhexidine gluconate (CHG)
Assay: Peritoneal fibrosis induced by chlorhexidine gluconate (CHG) in mice
Format: in vivo, C57BL/6J mice
Conditions: compared to DMSO group, FIG. 9C, 9D
Procedure: Animal experiments were conducted with the approval of the Animal Experimental Ethics Committee of Yeungnam University College of Medicine (YUMC-AEC2018-033). Peritoneal fibrosis mice experiments were performed using a model of peritoneal fibrosis induced by chlorhexidine gluconate (CHG) (Yoshio Y et al., Kidney international. 2004).
From the 9th day, 2.5 μl of 10 mM salinomycin (Sal group) or 2.5 μl of DMSO (DMSO group) was diluted in 100 μl phosphate buffer solution and intraperitoneally injected at intervals of 2 days.
As a negative control (NT group), 100 μl of a 15% ethanol phosphate buffer solution was injected intraperitoneally instead of a 0.1% CHG solution. On the 20th day, the mice were sacrificed, the peritoneal tissue was excised, and the tissue was fixed in 4% paraformaldehyde solution.
The tissue fixed in 10% formalin solution was embedded with paraffin and cut into 4 μm to prepare a tissue sample. After removing paraffin from the tissue sample, hematoxylin-eosin staining, trichrome staining, and PAS staining were performed.
The degree of fibrosis was measured by analyzing the degree of collagen staining using the i-Solution™ software program (IMT Inc., Canada) after trichrome staining and the degree of cell senescence in tissue samples was investigated by staining lipofuscin with Sudan black B (Viegas M S, et al., European journal of histochemistry: EJH. 2007). […]

## CC[C@@H](C(=O)[C@@H](C)[C@@H](O)[C@H](C)[C@@H]1O[C@@H]([C@@H](CC)C(=O)O)CC[C@@H]1C)[C@H]1O[C@]2(C=C[C@@H](O)[C@]3(CC[C@@](C)([C@H]4CC[C@](O)(CC)[C@H](C)O4)O3)O2)[C@H](C)C[C@@H]1C [salinomycin]
2.5 μl of 10 mM salinomycin in 100 μl phosphate buffer i.p. at 2-day intervals from 9th day
  thickness of the peritoneal mesothelial cell layer: significantly reduced
i.p. at 2-day intervals from 9th day
  degree of peritoneal fibrosis: decreased
